Biological target: T1, CmNAGase (Chitinolyticbacter meiyuanensis, UniProt A0A7D5C7R1)
T1 construct: full length, 836 residues (2508 bp), no signal peptide predicted, C-terminal His6-tag, pET-28a(+), E. coli BL21(DE3), 92 kDa; native peptides […], […], […]; catalytic D508, E509
Test: pNP release at […] nm, Lineweaver-Burk
Format: biochemical
Conditions: 50 mM sodium citrate, pH 5.4, 40 °C, 50-1000 μM substrate

T1 sequence (A0A7D5C7R1 entry or part of it): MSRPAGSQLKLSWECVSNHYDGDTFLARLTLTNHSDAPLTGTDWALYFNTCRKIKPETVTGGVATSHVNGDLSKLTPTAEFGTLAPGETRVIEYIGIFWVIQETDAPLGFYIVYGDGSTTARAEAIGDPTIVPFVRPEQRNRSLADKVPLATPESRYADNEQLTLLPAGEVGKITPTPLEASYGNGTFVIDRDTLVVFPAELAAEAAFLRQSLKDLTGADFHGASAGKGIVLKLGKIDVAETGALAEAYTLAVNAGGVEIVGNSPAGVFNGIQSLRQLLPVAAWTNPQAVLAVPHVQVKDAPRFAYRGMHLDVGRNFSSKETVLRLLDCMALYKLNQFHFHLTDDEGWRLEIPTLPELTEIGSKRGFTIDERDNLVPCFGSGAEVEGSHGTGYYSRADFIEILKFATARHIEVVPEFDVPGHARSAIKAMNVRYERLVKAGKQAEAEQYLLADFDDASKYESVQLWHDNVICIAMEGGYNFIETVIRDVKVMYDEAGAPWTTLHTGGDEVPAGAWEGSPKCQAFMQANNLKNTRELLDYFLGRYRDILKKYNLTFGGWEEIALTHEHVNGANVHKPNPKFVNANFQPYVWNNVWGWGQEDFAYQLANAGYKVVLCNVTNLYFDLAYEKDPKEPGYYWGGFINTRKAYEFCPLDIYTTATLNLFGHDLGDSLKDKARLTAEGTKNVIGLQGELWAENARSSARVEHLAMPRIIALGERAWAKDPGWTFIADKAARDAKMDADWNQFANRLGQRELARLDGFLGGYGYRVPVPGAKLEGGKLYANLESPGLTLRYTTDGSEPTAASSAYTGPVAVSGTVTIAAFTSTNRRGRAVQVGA

Structure (SMILES): CC(=O)N[C@H]1[C@H](Oc2ccc([N+](=O)[O-])cc2)O[C@H](CO)[C@@H](O)[C@@H]1O [pNP-GlcNAc]
- Km: 500 µM
